Laboratory results published in PubChem BioAssay AID248 (DTP/NCI, 2004).
Values joined by “and” are separate entries in the source; they are usually repeats but may differ in a detail not shown here. Equal entries are not always repeated. Toxic doses and inconclusive results are not listed. Square brackets hold non-standard residues; d marks the D form. Peptide text beside a SMILES is read from it. * marks the point of attachment. Cbz = O=C(OCc1ccccc1)*; Sar = CNCC(=O)O

System: L1210 leukemia ip in BDF1 mice, survival T/C
Assay: NCI In Vivo Anticancer Drug Screen. Data for tumor model L1210 Leukemia (intraperitoneal) in B6D2F1 (BDF1) mice
Settings: endpoint: mean survival time, higher = longer survival
Method in brief: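 Tumor was transplanted into mice, which were then dosed with test compound or vehicle alone. Survival was recorded for each group, and the treated figure was expressed relative to the control figure.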

[1] = dose: 50.0 mg/kg/injection, schedule: Q01DX001 (ip), vehicle: carboxymethylcellulose (CMC)
[2] = dose: 100.0 mg/kg/injection, schedule: Q04DX003 (ip), vehicle: saline
[3] = dose: 200.0 mg/kg/injection, schedule: Q04DX003 (ip), vehicle: saline
[4] = dose: 400.0 mg/kg/injection, schedule: Q04DX003 (ip), vehicle: saline
[5] = dose: 100.0 mg/kg/injection, schedule: Q04DX003 (ip), vehicle: saline with Tween-80
[6] = dose: 200.0 mg/kg/injection, schedule: Q04DX003 (ip), vehicle: saline with Tween-80
[7] = dose: 400.0 mg/kg/injection, schedule: Q04DX003 (ip), vehicle: saline with Tween-80
[8] = dose: 50.0 mg/kg/injection, schedule: Q01DX009 (ip), vehicle: Klucel (hydroxypropylcellulose) (HPC)
[9] = dose: 100.0 mg/kg/injection, schedule: Q01DX009 (ip), vehicle: Klucel (hydroxypropylcellulose) (HPC)
[10] = dose: 200.0 mg/kg/injection, schedule: Q01DX009 (ip), vehicle: Klucel (hydroxypropylcellulose) (HPC)

## O=C(C[n+]1ccccc1)N/N=C/c1ccc([N+](=O)[O-])s1
dose: 12.5 mg/kg/injection, schedule: Q01DX009 (ip), vehicle: water
  T/C: 96 % of control
dose: 25.0 mg/kg/injection, schedule: Q01DX009 (ip), vehicle: water
  T/C: 101 % of control

## CC(C#N)NCc1ccc2c(c1)OCO2 (centres undefined)
[1]
  T/C: 112 % of control
dose: 200.0 mg/kg/injection, schedule: Q01DX001 (ip), vehicle: carboxymethylcellulose (CMC)
  T/C: 96 % of control

## O=CN(O)CC(=O)O.[Zn]
dose: 6.25 mg/kg/injection, schedule: Q01DX009 (ip), vehicle: saline
  T/C: 105 % of control
dose: 12.5 mg/kg/injection, schedule: Q01DX009 (ip), vehicle: saline
  T/C: 100 % of control
dose: 25.0 mg/kg/injection, schedule: Q01DX009 (ip), vehicle: saline
  T/C: 120 % of control

## O=C1OC(=O)C2C1C1C3C=CC3C1C21C=C1 (centres undefined)
dose: 100.0 mg/kg/injection, schedule: Q01DX009 (ip), vehicle: other
  T/C: 100 % of control
[2]
  T/C: 96 % of control
dose: 200.0 mg/kg/injection, schedule: Q01DX009 (ip), vehicle: other
  T/C: 109 % of control
[3]
  T/C: 93 % of control
dose: 400.0 mg/kg/injection, schedule: Q01DX009 (ip), vehicle: other
  T/C: 110 % of control
[4]
  T/C: 100 % of control

## C/C=C(\C)COC(=O)c1ccc([N+](=O)[O-])cc1
dose: 100.0 mg/kg/injection, schedule: Q01DX001 (ip), vehicle: other
  T/C: 104 % of control
dose: 200.0 mg/kg/injection, schedule: Q01DX001 (ip), vehicle: other
  T/C: 98 % of control
dose: 400.0 mg/kg/injection, schedule: Q01DX001 (ip), vehicle: other
  T/C: 93 % of control

## Nc1nc(-c2ccc(Cl)cc2)c(N=Nc2ccc(Br)cc2)s1
[5]
  T/C: 104 % of control
[6]
  T/C: 97 % of control
[7]
  T/C: 101 % of control

## CCCCCSc1cccc(N)c1
dose: 100.0 mg/kg/injection, schedule: Q01DX001 (ip), vehicle: saline with Tween-80
  T/C: 112 % of control
dose: 200.0 mg/kg/injection, schedule: Q01DX001 (ip), vehicle: saline with Tween-80
  T/C: 102 % of control
dose: 400.0 mg/kg/injection, schedule: Q01DX001 (ip), vehicle: saline with Tween-80
  T/C: 97 % of control

## COc1cc(NC(=O)N(CCCl)N=O)cc(OC)c1OC
dose: 0.12 mg/kg/injection, schedule: Q01DX009 (ip), vehicle: saline
  T/C: 105 % of control
dose: 0.25 mg/kg/injection, schedule: Q01DX009 (ip), vehicle: saline
  T/C: 118 % of control
dose: 0.5 mg/kg/injection, schedule: Q01DX009 (ip), vehicle: saline
  T/C: 112 % of control
dose: 1.0 mg/kg/injection, schedule: Q01DX009 (ip), vehicle: saline
  T/C: 115 % of control
dose: 1.5 mg/kg/injection, schedule: Q01DX001 (ip), vehicle: carboxymethylcellulose (CMC)
  T/C: 111 % of control
dose: 2.5 mg/kg/injection, schedule: Q01DX009 (ip), vehicle: saline
  T/C: 161 % of control
dose: 3.0 mg/kg/injection, schedule: Q01DX001 (ip), vehicle: carboxymethylcellulose (CMC)
  T/C: 108 % of control
dose: 5.0 mg/kg/injection, schedule: Q01DX009 (ip), vehicle: saline
  T/C: 177 % of control
dose: 6.0 mg/kg/injection, schedule: Q01DX001 (ip), vehicle: carboxymethylcellulose (CMC)
  T/C: 118 % of control
dose: 10.0 mg/kg/injection, schedule: Q01DX009 (ip), vehicle: saline
  T/C: 164 % of control
dose: 11.0 mg/kg/injection, schedule: Q01DX009 (ip), vehicle: saline with Tween-80
  T/C: 157 % of control and 216 % of control
dose: 12.0 mg/kg/injection, schedule: Q01DX001 (ip), vehicle: carboxymethylcellulose (CMC)
  T/C: 151 % of control
dose: 15.0 mg/kg/injection, schedule: Q01DX009 (ip), vehicle: saline
  T/C: 164 % of control
dose: 16.6 mg/kg/injection, schedule: Q01DX009 (ip), vehicle: saline with Tween-80
  T/C: 223 % of control
dose: 22.0 mg/kg/injection, schedule: Q01DX009 (ip), vehicle: saline
  T/C: 216 % of control
dose: 25.0 mg/kg/injection, schedule: Q01DX001 (ip), vehicle: carboxymethylcellulose (CMC)
  T/C: 252 % of control
dose: 25.0 mg/kg/injection, schedule: Q01DX001 (ip), vehicle: saline
  T/C: 155 % of control
dose: 25.0 mg/kg/injection, schedule: Q01DX009 (ip), vehicle: saline with Tween-80
  T/C: 208 % of control
dose: 33.0 mg/kg/injection, schedule: Q01DX009 (ip), vehicle: saline
  T/C: 178 % of control
dose: 37.5 mg/kg/injection, schedule: Q01DX001 (ip), vehicle: saline
  T/C: 153 % of control
dose: 37.5 mg/kg/injection, schedule: Q01DX009 (ip), vehicle: saline with Tween-80
  T/C: 110 % of control
[1]
  T/C: 106 % of control
dose: 50.0 mg/kg/injection, schedule: Q01DX009 (ip), vehicle: saline
  T/C: 260 % of control
dose: 75.0 mg/kg/injection, schedule: Q01DX001 (ip), vehicle: carboxymethylcellulose (CMC)
  T/C: 236 % of control
dose: 75.0 mg/kg/injection, schedule: Q01DX009 (ip), vehicle: saline
  T/C: 173 % of control

## C=C1CC(c2ccc(S(=O)(=O)N(CC)CC)cc2)OC1=O (centres undefined)
dose: 25.0 mg/kg/injection, schedule: Q01DX005 (ip), vehicle: Klucel (hydroxypropylcellulose) (HPC)
  T/C: 89 % of control
dose: 25.0 mg/kg/injection, schedule: Q01DX009 (ip), vehicle: Klucel (hydroxypropylcellulose) (HPC)
  T/C: 98 % of control
dose: 25.0 mg/kg/injection, schedule: Q04DX002 (ip), vehicle: Klucel (hydroxypropylcellulose) (HPC)
  T/C: 96 % of control
dose: 50.0 mg/kg/injection, schedule: Q01DX005 (ip), vehicle: Klucel (hydroxypropylcellulose) (HPC)
  T/C: 92 % of control
[8]
  T/C: 94 % of control
dose: 50.0 mg/kg/injection, schedule: Q04DX002 (ip), vehicle: Klucel (hydroxypropylcellulose) (HPC)
  T/C: 96 % of control
dose: 100.0 mg/kg/injection, schedule: Q01DX005 (ip), vehicle: Klucel (hydroxypropylcellulose) (HPC)
  T/C: 96 % of control
[9]
  T/C: 98 % of control
dose: 100.0 mg/kg/injection, schedule: Q04DX002 (ip), vehicle: Klucel (hydroxypropylcellulose) (HPC)
  T/C: 96 % of control

## CN(CC(=O)O)C(=O)CNC(=O)OCc1ccccc1 (Cbz-Gly-[Sar]-OH)
[8]
  T/C: 105 % of control
dose: 50.0 mg/kg/injection, schedule: Q04DX003 (ip), vehicle: Klucel (hydroxypropylcellulose) (HPC)
  T/C: 97 % of control
[9]
  T/C: 94 % of control
dose: 100.0 mg/kg/injection, schedule: Q04DX003 (ip), vehicle: Klucel (hydroxypropylcellulose) (HPC)
  T/C: 97 % of control
[10]
  T/C: 91 % of control
dose: 200.0 mg/kg/injection, schedule: Q04DX003 (ip), vehicle: Klucel (hydroxypropylcellulose) (HPC)
  T/C: 98 % of control

## COc1ccc([N+](=O)[O-])cc1NC(=O)Nc1ccc(Nc2ccccc2)cc1
[8]
  T/C: 97 % of control
[9]
  T/C: 94 % of control
[10]
  T/C: 90 % of control

## O=C1OCc2cc3ccccc3nc21
dose: 100.0 mg/kg/injection, schedule: Q01DX009 (ip), vehicle: saline with Tween-80
  T/C: 94 % of control
[5]
  T/C: 105 % of control
dose: 200.0 mg/kg/injection, schedule: Q01DX009 (ip), vehicle: saline with Tween-80
  T/C: 97 % of control
[6]
  T/C: 105 % of control
dose: 400.0 mg/kg/injection, schedule: Q01DX009 (ip), vehicle: saline with Tween-80
  T/C: 92 % of control
[7]
  T/C: 96 % of control

## CCCCCCCCCCCCOCCOCCOCC(N)=O
dose: 100.0 mg/kg/injection, schedule: Q01DX009 (ip), vehicle: saline
  T/C: 104 % of control
[2]
  T/C: 97 % of control
dose: 200.0 mg/kg/injection, schedule: Q01DX009 (ip), vehicle: saline
  T/C: 100 % of control
[3]
  T/C: 109 % of control
dose: 400.0 mg/kg/injection, schedule: Q01DX009 (ip), vehicle: saline
  T/C: 96 % of control
[4]
  T/C: 97 % of control

## CCCCCCCCCCCCCCCCCCCC[As](=O)(O)CCCCCCCCCCCCCCCCCCCC
dose: 50.0 mg/kg/injection, schedule: Q01DX001 (ip), vehicle: saline
  T/C: 97 % of control
dose: 100.0 mg/kg/injection, schedule: Q01DX001 (ip), vehicle: saline
  T/C: 101 % of control
dose: 200.0 mg/kg/injection, schedule: Q01DX001 (ip), vehicle: saline
  T/C: 95 % of control
dose: 400.0 mg/kg/injection, schedule: Q01DX001 (ip), vehicle: saline
  T/C: 103 % of control

## CCCCCCCCCCCCCCCCCC[n+]1ccccc1
dose: 0.09 mg/kg/injection, schedule: Q01DX009 (ip), vehicle: saline with Tween-80
  T/C: 89 % of control
dose: 0.19 mg/kg/injection, schedule: Q01DX009 (ip), vehicle: saline with Tween-80
  T/C: 99 % of control
dose: 0.39 mg/kg/injection, schedule: Q01DX009 (ip), vehicle: saline with Tween-80
  T/C: 96 % of control
